# Test results reported in PubChem BioAssay (NCI).
# Several values for one entry are separate records, joined by “and”; a condition that tells them apart may be missing. Equal values may be shown once.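 Step 1: Grow cells in 96-well plates. Step 2: Expose to compound for 48 hours at 5 concentrations. Step 3: Interpolate endpoints linearly; if unreached, use highest concentration. GI50 is the concentration that inhibits growth by half. TGI denotes the concentration required for complete inhibition of growth.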
# Tests used:
# Test in all cases: growth of human tumour cells (NCI), 48 h
# [1] = tested on: MDA-MB-468 breast
# [2] = tested on: NCI-H226 lung
# [3] = tested on: UACC-62 melanoma
# [4] = tested on: COLO 205 colon
# [5] = tested on: HOP-62 NSCLC
# [6] = tested on: U251 CNS
# [7] = tested on: HCT-15 colon
# [8] = tested on: UO-31 renal
# [9] = tested on: SR leukemia
# [10] = tested on: A549 NSCLC
# [11] = tested on: MALME-3M melanoma
# [12] = tested on: IGROV1 ovarian
# [13] = tested on: ACHN renal
# [14] = tested on: SF-268 CNS
# [15] = tested on: SK-OV-3 ovarian
# [16] = tested on: NCI-H23 lung
# [17] = tested on: A498 renal
# [18] = tested on: OVCAR-3 ovarian
# [19] = tested on: OVCAR-4 ovarian
# [20] = tested on: RXF 393 renal
# [21] = tested on: HL-60(TB) leukemia
# [22] = tested on: PC-3 prostate
# [23] = tested on: UACC-257 melanoma
# [24] = tested on: DU-145 prostate
# [25] = tested on: CCRF-CEM leukemia
# [26] = tested on: 786-0 renal
# [27] = tested on: SF-539 CNS
# [28] = tested on: KM12 colon
# [29] = tested on: HS 578T breast
# [30] = tested on: MOLT-4 leukemia
# [31] = tested on: SK-MEL-5 melanoma
# [32] = tested on: MCF7 breast
# [33] = tested on: MDA-MB-231 breast
# [34] = tested on: K-562 leukemia
# [35] = tested on: NCI-H460 lung
# [36] = tested on: SW-620 colon
# [37] = tested on: M14 melanoma
# [38] = tested on: BT-549 breast
# [39] = tested on: SK-MEL-28 melanoma
# [40] = tested on: HCT-116 colon
# [41] = tested on: EKVX NSCLC
# [42] = tested on: SNB-19 CNS
# [43] = tested on: OVCAR-8 ovarian
# [44] = tested on: RPMI-8226 leukemia
# [45] = tested on: HCC-2998 colon
# [46] = tested on: TK-10 renal
# [47] = tested on: MDA-MB-435
# [48] = tested on: SK-MEL-2 melanoma
# [49] = tested on: SF-295 CNS
# [50] = tested on: HOP-92 NSCLC
# [51] = tested on: OVCAR-5 ovarian
# [52] = tested on: LOX IMVI melanoma
# [53] = tested on: CAKI-1 renal
# [54] = tested on: SNB-75 CNS
# [55] = tested on: SN12C renal
# [56] = tested on: NCI-H522 lung
smiles,measurement,setting,value
N#Cc1c(O)c2c(c(O)c1C#N)C(=O)c1ccccc1C2=O,GI50,[1],1.63 µM
same,TGI,[1],6.17 µM
C#C[C@]1(O)CC[C@H]2[C@@H]3CC=C4c5sc(-c6cccc(O)c6)nc5CC[C@]4(C)[C@H]3CC[C@@]21C,GI50,[1],2.56 µM
same,TGI,[1],6.66 µM
Cn1c(-c2nonc2N)nc2cnccc21,GI50,[1],> 25 µM
same,TGI,[1],> 25 µM
Cn1cc(C2=C(c3ccc(OC[C@@H](O)CO)cc3)C(=O)NC2=O)c2ccccc21,GI50,[1],> 25 µM
same,TGI,[1],> 25 µM
CNC(=O)c1cc(Oc2ccc3c(c2)sc2nc(-c4ccc(N)cc4)cn23)ccn1,GI50,[1],0.304 µM
same,TGI,[1],> 100 µM
COc1nc2c(cc1S(=O)(=O)c1ccccc1)CCc1c-2cnn1-c1ccccc1Cl,GI50,[1],3.7 µM
same,TGI,[1],> 100 µM
CCOC(=O)c1cc(-c2ccc([N+](=O)[O-])cc2)n(-c2ccc(C(=O)O)c(O)c2)c1C,GI50,[1],2.8 µM
same,TGI,[1],10.7 µM
Cc1c(Cl)cccc1Nc1ncccc1C(=O)O,GI50,[1],84.4 µM
same,TGI,[1],> 100 µM
O=C1c2ccccc2C(=O)c2c1ccc1[nH]c(CCl)nc21,GI50,[1],1.94 µM
same,TGI,[1],4.29 µM
COC(=O)c1c2c(c(C)[n+]([O-])c1C)C(=O)C=CC2=O,GI50,[1],0.946 µM
same,TGI,[1],2.71 µM
COc1ccc(CN2CCCC(C(=O)c3ccc(C(F)(F)F)cc3)C2)c(O)c1 (stereo unspecified),GI50,[1],15.7 µM
same,TGI,[1],41.6 µM
ClCc1ccccc1CSc1ncnc2nc[nH]c12,GI50,[1],48.9 µM
same,TGI,[1],> 60 µM
COc1ccc(CNC(=O)COc2ccc(/C=N/Nc3nc4ccccc4s3)cc2)cc1,GI50,[1],1.9 µM
same,TGI,[1],6.09 µM
COc1ccccc1NC(=O)c1ccc(/C=C/C(=O)c2nccn2C)cc1,GI50,[1],0.383 µM
same,TGI,[1],0.848 µM
CSc1ccccc1NC(=O)c1ccc2nnn(/C(C#N)=C/c3ccccn3)c2c1,GI50,[2],13.9 µM
same,TGI,[2],32.9 µM
same,GI50,[1],1.6 µM
same,TGI,[1],3.32 µM
same,GI50,[3],1.83 µM
same,TGI,[3],3.84 µM
same,GI50,[4],2.02 µM
same,TGI,[4],3.63 µM
same,GI50,[5],15.7 µM
same,TGI,[5],30.9 µM
same,GI50,[6],3.61 µM
same,TGI,[6],12.9 µM
same,GI50,[7],1.67 µM
same,TGI,[7],3.54 µM
same,GI50,[8],1.55 µM
same,TGI,[8],2.89 µM
same,GI50,[9],2.51 µM
same,TGI,[9],9.46 µM
same,GI50,[10],10.2 µM
same,TGI,[10],23.6 µM
same,GI50,[11],1.75 µM
same,TGI,[11],3.29 µM
same,GI50,[12],2.07 µM
same,TGI,[12],4.46 µM
same,GI50,[13],1.78 µM
same,TGI,[13],3.17 µM
same,GI50,[14],11.5 µM
same,TGI,[14],28.7 µM
same,GI50,[15],18.6 µM
same,TGI,[15],33.8 µM
same,GI50,[16],1.8 µM
same,TGI,[16],3.52 µM
same,GI50,[17],15.3 µM
same,TGI,[17],28.6 µM
same,GI50,[18],1.77 µM
same,TGI,[18],3.48 µM
same,GI50,[19],4.22 µM
same,TGI,[19],17.3 µM
same,GI50,[20],1.5 µM
same,TGI,[20],2.86 µM
same,GI50,[21],1.9 µM
same,TGI,[21],5.97 µM
same,GI50,[22],4.09 µM
same,TGI,[22],16.6 µM
same,GI50,[23],2.02 µM
same,TGI,[23],5.3 µM
same,GI50,[24],1.93 µM
same,TGI,[24],3.64 µM
same,GI50,[25],3 µM
same,TGI,[25],> 100 µM
same,GI50,[26],1.82 µM
same,TGI,[26],3.38 µM
same,GI50,[27],1.84 µM
same,TGI,[27],3.54 µM
same,GI50,[28],3.08 µM
same,TGI,[28],10.7 µM
same,GI50,[29],3.29 µM
same,TGI,[29],13.3 µM
same,GI50,[30],3.29 µM
same,TGI,[30],9.07 µM
same,GI50,[31],3.37 µM
same,TGI,[31],12.1 µM
same,GI50,[32],1.69 µM
same,TGI,[32],3.36 µM
same,GI50,[33],1.99 µM
same,TGI,[33],4.06 µM
same,GI50,[34],1.84 µM
same,TGI,[34],6.86 µM
same,GI50,[35],3.24 µM
same,TGI,[35],11.1 µM
same,GI50,[36],1.86 µM
same,TGI,[36],3.54 µM
same,GI50,[37],2 µM
same,TGI,[37],3.98 µM
same,GI50,[38],2.32 µM
same,TGI,[38],7.2 µM
same,GI50,[39],1.86 µM
same,TGI,[39],3.75 µM
same,GI50,[40],1.8 µM
same,TGI,[40],3.46 µM
same,GI50,[41],4.59 µM
same,TGI,[41],16.1 µM
same,GI50,[42],13.4 µM
same,TGI,[42],26.2 µM
same,GI50,[43],3.34 µM
same,TGI,[43],12.7 µM
same,GI50,[44],3.14 µM
same,TGI,[44],> 100 µM
same,GI50,[45],1.78 µM
same,TGI,[45],3.33 µM
same,GI50,[46],1.75 µM
same,TGI,[46],3.25 µM
same,GI50,[47],2.07 µM
same,TGI,[47],4.89 µM
same,GI50,[48],2.25 µM
same,TGI,[48],5.22 µM
same,GI50,[49],15.5 µM
same,TGI,[49],28.8 µM
same,GI50,[50],1.89 µM
same,TGI,[50],7.5 µM
same,GI50,[51],1.84 µM
same,TGI,[51],3.91 µM
same,GI50,[52],1.7 µM
same,TGI,[52],3.19 µM
same,GI50,[53],1.55 µM
same,TGI,[53],2.92 µM
same,GI50,[54],10.1 µM
same,TGI,[54],21.7 µM
same,GI50,[55],3.87 µM
same,TGI,[55],14.1 µM
same,GI50,[56],1.56 µM
same,TGI,[56],3.22 µM
O=[n+]1c(CBr)c(CBr)n([O-])c2ccccc21,GI50,[1],7.38 µM
same,TGI,[1],20.4 µM
CC1=C2[C@@H](CC1)[C@]1(C)O[C@@](C(C)C)(C[C@H]1OC(=O)[C@H](C)O)[C@H]2OC(=O)/C=C/c1ccccc1,GI50,[1],12.6 µM
same,TGI,[1],28.3 µM
O=C(Cc1ccc(/C=C/C(=O)c2ncc[nH]2)cc1)Nc1ccc(Cl)cc1,GI50,[1],1.68 µM
same,TGI,[1],6.2 µM
OC(c1cccc(C(F)(F)F)c1)c1cnccc1NC1CCCCCC1 (stereo unspecified),GI50,[1],1.22 µM
same,TGI,[1],2.76 µM
CCN1CCN(c2nc(NCCNc3ccnc4cc(Cl)ccc34)c3ccccc3n2)CC1,GI50,[1],0.752 µM
same,TGI,[1],2.34 µM
N#Cc1nc(-c2ccc(F)cc2)oc1S(=O)(=O)N1CCOCC1,GI50,[1],1.6 µM
same,TGI,[1],3.27 µM
O=C(O)CCCc1ccc(N(CCCl)CCCl)cc1,GI50,[1],23.1 µM
same,TGI,[1],99.2 µM
NS(=O)(=O)c1ccc(-n2nc(-c3ccc(Br)cc3)ccc2=O)cc1,GI50,[1],> 10 µM
same,TGI,[1],> 10 µM
CN=C1NC(=O)/C(=C/c2ccc3ncccc3c2)S1,GI50,[1],3.26 µM
same,TGI,[1],21.6 µM
C[C@@H]1Cc2c([nH]c3ccccc23)[C@@H](c2c(F)cc(/C=C/C(=O)O)cc2F)N1CC(C)(C)F,GI50,[1],16.9 µM
same,TGI,[1],53.5 µM
CN1CCN(Cc2ccc(NC(=O)c3cncc(C#Cc4cnc(N)c5ccccc45)c3)cc2C(F)(F)F)CC1,GI50,[1],0.4 µM
same,TGI,[1],0.918 µM
Fc1ccc(-c2nn(-c3ccccc3)cc2-c2nc3ccccc3o2)cc1,GI50,[1],0.249 µM
same,TGI,[1],0.877 µM
CS(=O)c1nccc(-c2c(-c3ccc(F)c(OCCc4ccc(F)cc4)c3)nc3sccn23)n1 (stereo unspecified),GI50,[1],1.73 µM
same,TGI,[1],3.76 µM
O=C(NNc1nc2cc(F)c(F)cc2n2cccc12)c1cccnn1,GI50,[1],0.408 µM and 0.204 µM
same,TGI,[1],1.5 µM and 0.712 µM
COc1cccc(-c2nn(-c3ccccc3)cc2-c2ccnc(NCCCNS(=O)(=O)c3cccc(F)c3)c2)c1,GI50,[1],3.49 µM
same,TGI,[1],30.4 µM
CC[n+]1ccc2c(c1)C(=O)c1nccc3c1c-2nc1ccccc13,GI50,[1],0.462 µM
same,TGI,[1],1.18 µM
COc1cc2c(c(OC)c1OC)-c1ccc(NCc3ccccc3)c(=O)cc1[C@@H](NC(C)=O)CC2,GI50,[1],0.319 µM
same,TGI,[1],9.13 µM
CC1=C(CCCOC(=O)NCCCl)C2=C(C)C3(CC3)[C@@](C)(O)C(=O)C2=C1,GI50,[1],1.83 µM
same,TGI,[1],5.08 µM
